Laboratory results reported in ChEMBL document CHEMBL1773013, “Malyngamide 3 and cocosamides A and B from the marine cyanobacterium Lyngbya majuscula from Cocos Lagoon, Guam” (J Nat Prod, 2011).

Assays:
MCF7 = assay: Cytotoxicity against human MCF7 cells assessed as cell viability after 48 hrs by MTT assay; format: functional, cell-based; conditions: MCF7, 48 h
HT-29 = assay: Cytotoxicity against human HT-29 cells assessed as cell viability after 48 hrs by MTT assay; format: functional, cell-based; conditions: HT-29, 48 h

`C=CCCC[C@@H]1OC(=O)CNC(=O)[C@H](Cc2ccccc2)N(C)C(=O)[C@@H]2CCCN2C(=O)[C@H](Cc2ccccc2)N(C)C(=O)[C@H](C(C)C)NC(=O)C1(C)C` [COCOSAMIDE A] was tested, and the IC50 (MCF7) was 30 µM and the IC50 (HT-29) was 24 µM.
`C#CCCC[C@@H]1OC(=O)CNC(=O)[C@H](Cc2ccccc2)N(C)C(=O)[C@@H]2CCCN2C(=O)[C@H](Cc2ccccc2)N(C)C(=O)[C@H](C(C)C)NC(=O)C1(C)C` [COCOSAMIDE B] showed an IC50 (MCF7) of 39 µM and an IC50 (HT-29) of 11 µM.
In the case of `CCCCCCC[C@@H](C/C=C/CCC(=O)N(C)C/C(=C\Cl)CC(=O)CC(=O)NC[C@H](O)CC(=O)OC)OC` [MALYNGAMIDE 3], the IC50 (MCF7) is reported as 29 µM and the IC50 (HT-29) is reported as 48 µM.
Compound `CC(=O)O[C@H]1C(=O)[C@@]2(C)[C@H]([C@H](OC(=O)c3ccccc3)[C@]3(O)C[C@H](OC(=O)[C@H](O)[C@@H](NC(=O)c4ccccc4)c4ccccc4)C(C)=C1C3(C)C)[C@]1(OC(C)=O)CO[C@@H]1C[C@@H]2O` [PACLITAXEL] has an IC50 (MCF7) of 0.006 µM and an IC50 (HT-29) of 0.007 µM.
